Results taken from PMC9822133, “Design, Synthesis and Antiproliferative Evaluation of Bis-Indole Derivatives with a Phenyl Linker: Focus on Autophagy” (Molecules, 2022).

What was measured:
[1] = test system: A549 cells; test: BrdU cell proliferation assay; assay type: cell-based; conditions: Homo sapiens; A549, 72 h of incubation, 5-30 μM; read-out: IC50, BrdU incorporation
Procedure: Measurement of the BrdU, a thymidine analogue, is a sensitive method used for the detection of DNA synthesis during the S phase of the cell cycle.
A549 tumor cells were plated at a density of 5 × 10^3 cells/well in a volume of 80 µL (96-well plates). After 24 h of incubation in the respective medium, we added the indole phytoalexin 49 in concentrations of 5–30 µM. After 48 h of incubation with the test substance, we added BrdU labeling solution and incubated for another 24 h. Subsequently, the cells were fixed for 30 min with a fixing solution, aspirated and incubated with peroxidase-conjugated anti-BrdU antibody (100 µL, 1:100). After washing with washing buffer 3 times, TMB substrate solution (tetramethylbenzidine, Roche, Basel, Switzerland) was added in a volume of 100 uL to each well. During the reaction, 25 µL of 1M H2SO4 was added as a stop solution, and the amount of BrdU incorporated was detected with an automated Cytation™ 3 Cell Imaging Multi-Mode Reader (Biotek, Winooski, VT, USA) at a wavelength of 450 nm. Three independent analyses were performed.

[2] = test system: Jurkat; test: MTT screening assay, Jurkat; assay type: cell-based; conditions: Homo sapiens, 72 h incubation
Source text: The ability of newly synthesized indole phytoalexins to suppress cell proliferation was screened in vitro on eight cancer cell lines including human colorectal carcinoma (Caco-2 and HCT116), human cervical cancer (HeLa), human breast adenocarcinoma (MCF-7, MDA-MB-231), human alveolar adenocarcinoma (A549) and human leukemic T cell lymphoma (Jurkat), and two non-cancer cell lines (MCF-10A, Cos-7).
The cell lines used for this study were Caco-2 (human colorectal adenocarcinoma cell line, American Type Culture Collection, Manassas, VA, USA (ATCC)), HCT116 (human colorectal carcinoma cells European Collection of Authenticated Cell Cultures, Salisbury, UK (ECACC)), HeLa (human cervical tumor cells, ECACC), MCF-7 (human breast tumor cells, ECACC), MDA-MB-231 (human breast tumor cells, ATCC), A549 (human lung carcinoma cells, ATCC), BLM (human melanoma lung metastases, a gift from prof. K. Smetana, Institute of Anatomy, Charles University in Prague), Jurkat (human leukemia cell line, ECACC), Cos-7 (immortalized monkey kidney fibroblasts, ATCC) and MCF-10A (human mammary epithelial cells, ATCC). Caco-2, MCF-7, BLM, Cos-7 and A549 cells were cultured in Dulbecco’s Modified Eagle’s Medium (DMEM) with high glucose and sodium pyruvate (GE Healthcare, Piscataway, NJ, USA); HCT116 lines, HeLa, MDA-MB-231 and Jurkat were cultured in RPMI-1640 medium; and MCF10A cells were cultured in high glucose DMEM/F12 (Dulbecco’s Modified Eagle’s Medium F12). The media were enriched with 10% fetal bovine serum (FBS) and a 1% solution of a mixture of antibiotics and antimycotics 1× HyClone™ (GE Healthcare, Chicago, IL, USA). DMEM/F12 medium was supplemented with epidermal growth factor (EGF) (20 ng/mL final), hydrocortisone (0.5 μg/mL final) and insulin (10 μg/mL final) (Sigma-Aldrich Chemie, Steinheim, Germany). The cells were placed in an incubator at 37 °C with humidified air containing 5% CO2.
The MTT assay is a colorimetric method used to quantify the metabolic activity of cells. MTT (3-(4,5-di-methylthiazol-2-yl)2,5-diphenyltetrazolium bromide) (Sigma-Aldrich Chemie, Steinheim, Germany) is reduced by oxidoreductases in the cytosol of cells to light-absorbing formazan, the presence of which can be measured spectrophotometrically and determines the half-maximal inhibitory concentration (IC50). A549 cells were seeded in […] culture plates at a density of 5 × 10^3 per well. […]
We also incubated the cells with chloroquine at concentrations of 5–20 µM, which was added 1 h before the addition of the test substance, and cisplatin at concentrations of 3–10 µM. […] After 24 h, the absorbance was measured at a wavelength of 540 nm using an automated Cytation™ 3 Cell Imaging Multi-Mode Reader (Biotek, Winooski, VT, USA). […]

[3] = test system: Atg7; test: Western blot, Atg7; assay type: cell-based, human; conditions: A549, 24, 48, 72 h
Source text: Atg7 belongs to the family of Atg (autophagy-related) proteins involved in the process of autophagy. A ubiquitin-like conjugation system is required for autophagosome formation. The Atg7 protein is an E1-like activating enzyme that ensures the conjugation reaction and is essential for successful conversion of cytosolic LC3-I to its conjugated form, LC3-II.. […] Similar results were reported earlier. Hseu et al. studied the effect of a natural chalcone, flavokawain B, on A549 lung cancer cells. […] Moreover, in curcumin-induced autophagy, up-regulation of beclin-1 has also been observed.
A549 cells were seeded on Petri dishes (55 cm^2) at a density of 1 × 10^6 and allowed to culture in the medium. After 24 h, the test substance was added, and the cells were incubated for 24, 48 and 72 h. Subsequently, the cells were lysed with ice-cold Laemli buffer solution containing glycerol, 1M Tris/HCl (pH 6.8), 20% sodium dodecyl sulphate (SDS), deionized water and mixtures of phosphatase and protease inhibitors. After lysis, the cells were sonicated, and the protein concentration in the samples was quantified using the Pierce® BCA Protein Assay Kit (Thermo Scientific, Rockford, IL, USA) and measured by an automated Cytation™ 3 Cell Imaging Multi-Mode Reader (Biotek) at a wavelength of 570 nm. […]

SMILES: CC(C)(C)OC(=O)n1cc(CNC(=O)Nc2ccc(NC(=O)NCc3cn(C(=O)OC(C)(C)C)c4ccccc34)cc2)c2ccccc21 [Compound 49, N,N′-(1,4-phenylene)bis{N′-[1-(tert-butoxycarbonyl)indol-3-yl]methyl (urea)}]
- IC50 [1]: 16.1 µM
- IC50 [2]: 98.8 ± 1.7 µM
- levels of Atg7 [3]: significantly increased
